Data taken from ChEMBL document CHEMBL1136331, “Photoregulation of deacylation rate of acyl trypsin derived from photoresponsive inverse substrate” (Bioorg Med Chem Lett, 2003).

What was measured:
[1] = Ratio of kinetic parameter (k2) to that of kinetic parameter(Ks)
[2] = Kinetic parameter for rate constant of acylation step (k2) was determined
[3] = Kinetic parameter for rate constant of deacylation step (k3) was determined

| k2/Ks [1] [M⁻¹ s⁻¹] | k2 [2] [s⁻¹] | k3 [3] [s⁻¹] | SMILES |
| --- | --- | --- | --- |
| 151000 | 1.06 | 0.000378 | N=C(N)Nc1ccc(OC(=O)c2ccc(/N=N/c3ccccc3)cc2)cc1 |
| 164000 | 7.75 | 0.000702 | N=C(N)Nc1ccc(OC(=O)c2ccc(/N=N\c3ccccc3)cc2)cc1 |
